Results taken from patent US6867283B2, “Peptides capable of binding to MHC molecules, cells presenting such peptides, and pharmaceutical compositions comprising such peptides and/or cells” (Technion Research & Development Foundation Ltd., priority 2001, dated 2005).

Assays:
[1] = test system: EL4-HHD cells loaded with the peptides; assay: Cytotoxic T lymphocytes assay after immunization of HHD transgenic mice with peptide-loaded cells; assay type: in vivo; conditions: compared to negative control peptide ALLCAPSLL; effector-to-target ratio of 50:1 shown
Text: Cells were loaded separately with individual peptides, washed and injected in four groups: 1-p1028 (SEQ ID NO:13) alone, 2- p1258 (SEQ ID NO:24) alone, 3-pool of peptides: p913 (SEQ ID NO:5), p958 (SEQ ID NO:9), p989 of CD59 (SEQ ID NO:11) and p989 of FLI (SEQ ID NO:12), 4- peptides p1031 (SEQ ID NO:14), p1121 (SEQ ID NO:22) and p1068 (SEQ ID NO:16). Unloaded EL4-HHD or targets cells not loaded with the peptides were used as negative controls. An effector-to-target ratio of 50:1 is shown,
Transgenic mice expressing a single chain HLA-A2.1/Db-β2 m which are double knockout for H-2 Db and for β2 m (HHD mice) were immunized four times intra-peritoneally at 7-day interval with 2×10^6 irradiated (5,000 rad) RMA-S-HHD-B7.1 cells loaded for two hours at 26° C. followed by two hours at 37° C. with 100 μM of the synthetic peptides. Ten days after the last immunization the spleens were removed from the vaccinated mice. Splenocytes were re-stimulated with 100 μM of synthetic peptides for five days. Viable lymphocytes were separated by lympholyte-M (Cadarlane, Hornby, Canada) and resuspended in RPMI-HEPES. Cytotoxic activity was measured as in [26] by admixing the lymphocytes at different ratios with 5×10^3 EL4-HHD cells grown in medium containing ^35S methionine and then loaded wit the synthetic peptides.
To further evaluate the affinity of the peptides to the HLA-A2 and to obtain some insight into their immunogenic potential, selected peptides were tested for their ability to induce an immune response in HLA-A2 transgenic mice. It was assumed that only peptides that could be effectively presented and remain tightly bound to the cells would be capable of inducing an immune response in these mice. The same synthetic peptides that were used for the FACS analysis were used for immunization of the HHD transgenic mice, which express the human HLA-A2.1/Db-β2 m single chain. To immunize the mice, the HHD culture cells were loaded with the different peptides and then injected to the HHD mice. The immune response in the mice was followed by the appearance of CTLs specific for these peptides. Some of the peptides were indeed capable of inducing an immune response, which both authenticate them as MHC bound peptides and gives an indication about their immunogenic potential.

HLA-A2.1 = test system: T1, HLA-A2.1; assay: Stabilization of cell surface HLA-A2.1 by peptide binding (reconstitution into empty MHC on RMA-S-HHD cells, FACS); assay type: cell-based, human; conditions: synthetic peptide 100 μM, FACS with W6/32 mAb
T1 construct: expressed in transfected cells; host or cells: RMA-S (murine TAP-2 deficient lymphoma, C57BL/6 origin)
T1 sequence (P61769 with tags, fused parts or gaps): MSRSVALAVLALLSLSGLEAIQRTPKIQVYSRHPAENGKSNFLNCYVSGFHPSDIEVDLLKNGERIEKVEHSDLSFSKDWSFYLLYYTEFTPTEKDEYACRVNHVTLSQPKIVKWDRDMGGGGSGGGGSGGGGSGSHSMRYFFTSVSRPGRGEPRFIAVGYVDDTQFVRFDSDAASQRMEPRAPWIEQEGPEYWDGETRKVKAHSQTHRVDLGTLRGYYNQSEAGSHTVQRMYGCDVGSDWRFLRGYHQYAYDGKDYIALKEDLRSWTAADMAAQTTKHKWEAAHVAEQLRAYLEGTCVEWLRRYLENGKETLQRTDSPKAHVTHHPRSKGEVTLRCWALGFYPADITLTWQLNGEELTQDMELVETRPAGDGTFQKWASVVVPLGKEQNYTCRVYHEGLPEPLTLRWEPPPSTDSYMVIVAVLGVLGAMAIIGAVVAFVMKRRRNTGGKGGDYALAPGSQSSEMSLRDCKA
Experimental: Synthetic peptides were added to 10^6 RMA-S-HHD cells to a concentration of 100 μM followed by incubation for two hours at 26° C. and two hours at 37° C. […] The HLA-A2.1 peptide derived from gp100 served as a positive control and unloaded RMA-S-HHD cells as a negative control.
RMA-S-HHD cells were washed three times with PBS followed by incubation overnight in FCS-free IMDM medium at 26° C. Synthetic peptides were added to 10^6 cells at a concentration of 100 μM. The cells were incubated for two hours at 26° C. followed by two hours at 37° C. […] (Sigma).
Another approach to ascertain that the identified peptides were indeed MHC bound peptide antigens, their capacity to bind tightly and stabilize cell surface HLA-A2.1 was tested by reconstitution into empty MHC on the surface of RMA-S-HHD cells.

ALSDHHIYL
lysis of peptide-loaded EL4-HHD cells by CTLs from immunized HHD mice [1]: significant lysis

FLFDGSPTYVL
lysis of peptide-loaded EL4-HHD cells by CTLs from immunized HHD mice [1]: significant lysis

GLIEKNIEL
lysis of peptide-loaded EL4-HHD cells by CTLs from immunized HHD mice [1]: significant lysis

GVYDGEEHSV
binding affinity to HLA-A2 / stabilization of empty MHC on the surface of RMA-S-HHD cells (HLA-A2.1): normal

TLWVDPYEV
lysis of peptide-loaded EL4-HHD cells by CTLs from immunized HHD mice [1]: significant lysis
